Laboratory results as given in patent publication US10745382B2 (BRISTOL-MYERS SQUIBB COMPANY, priority 2015, dated 2020).

Biological target: T1, PD-1/PD-L1 (Homo sapiens, UniProt Q9NZQ7)
T1 construct: made in house; host or cells: HEK293T
Assay: PD-1/PD-L1 Homogenous Time-Resolved Fluorescence (HTRF) binding assay
Conditions: PD-L1-His 10 nM, PD-1-Ig 20 nM; value given as range class; read-out: Range or IC50
Procedure, shortened: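 Binding measured in dPBS with 0.1% BSA and 0.05% Tween-20, detected by HTRF with europium cryptate anti-Ig (1 nM final) and APC anti-His (20 nM final) added over the binding reaction. Counter-assays used human PD-1-Ig/PD-L2-His (20 and 5 nM) and CD80-His/PD-L1-Ig (100 and 10 nM).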

T1 sequence (Q9NZQ7 with tags, fused parts or gaps): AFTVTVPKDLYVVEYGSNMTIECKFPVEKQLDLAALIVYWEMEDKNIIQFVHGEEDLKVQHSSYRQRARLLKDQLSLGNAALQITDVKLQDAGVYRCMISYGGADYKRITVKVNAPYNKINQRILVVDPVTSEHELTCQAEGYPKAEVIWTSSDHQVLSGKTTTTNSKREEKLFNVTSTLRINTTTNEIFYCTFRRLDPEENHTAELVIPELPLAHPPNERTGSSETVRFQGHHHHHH

| Compound | IC50 [nM] |
| --- | --- |
| Cc1c(COCCN2CC[C@@H](O)C2)cccc1-c1cccc(COc2cc(OCc3cncc(C#N)c3)c(CNC(C)(CO)CO)cc2Cl)c1C [Example 4131, (R)-5-((4-chloro-2-(((1,3-dihydroxy-2-methylpropan-2-yl)amino)methyl)-5-((3′-((2-(3-hydroxypyrrolidin-1-yl)ethoxy)methyl)-2,2′-dimethyl-[1,1′-biphenyl]-3-yl)methoxy)phenoxy)methyl)nicotinonitrile] | 0.21 to 10 |
| Cc1c(COc2cc(OCc3cncc(C#N)c3)c(CN[C@@](C)(CO)C(=O)O)cc2Cl)cccc1-c1cccc(OCCN2CCOCC2)c1 [Example 1002, (S)-2-((5-chloro-2-((5-cyanopyridin-3-yl)methoxy)-4-((2-methyl-3′-(2-morpholinoethoxy)-[1,1′-biphenyl]-3-yl)methoxy)benzyl)amino)-3-hydroxy-2-methylpropanoic Acid] | 10 to 100 |
| COC(=O)C1(O)CCN(CCCOc2cccc(-c3cccc(COc4cc(OCc5cncc(S(C)(=O)=O)c5)c(CN[C@H](CO)C(=O)O)cc4Cl)c3C)c2C)CC1 [Example 1038, (R)-2-((5-chloro-4-((3′-(3-(4-hydroxy-4-(methoxycarbonyl)piperidin-1-yl)propoxy)-2,2′-dimethyl-[1,1′-biphenyl]-3-yl)methoxy)-2-((5-(methylsulfonyl)pyridin-3-yl)methoxy)benzyl)amino)-3-hydroxypropanoic Acid] | 0.21 to 10 |
| Cc1c(COc2cc(OCc3cncc(C(N)=O)c3)c(CN[C@](C)(CO)C(=O)O)cc2Cl)cccc1-c1cccc(OCCCN2CCC(O)(C(=O)O)CC2)c1C [Example 1094, (R)-1-(3-((3′-((5-((5-carbamoylpyridin-3-yl)methoxy)-4-(((2-carboxy-1-hydroxypropan-2-yl)amino)methyl)-2-chlorophenoxy)methyl)-2,2′-dimethyl-[1,1′-biphenyl]-3-yl)oxy)propyl)-4-hydroxypiperidine-4-carboxylic Acid] | 0.21 to 10 |
| Cc1c(COc2cc(OCc3cncc(C#N)c3)c(CN[C@@](C)(CO)C(=O)O)cc2Cl)cccc1-c1cccc(OCCCN2CC[C@@H](O)C2)c1 [Example 1017, (S)-2-((5-chloro-2-((5-cyanopyridin-3-yl)methoxy)-4-((3′-(3-((R)-3-hydroxypyrrolidin-1-yl)propoxy)-2-methyl-[1,1′-biphenyl]-3-yl)methoxy)benzyl)amino)-3-hydroxy-2-methylpropanoic Acid] | 0.21 to 10 |
| N#Cc1cncc(COc2cc(OCc3cccc(-c4cccc(OCCCN5CC[C@@H](O)C5)c4Cl)c3Cl)c(Cl)cc2CNC[C@H](O)CO)c1 [Example 2034, 5-((4-chloro-5-((2,2′-dichloro-3′-(3-((R)-3-hydroxypyrrolidin-1-yl)propoxy)-[1,1′-biphenyl]-3-yl)methoxy)-2-((((S)-2,3-dihydroxypropyl)amino)methyl)phenoxy)methyl)nicotinonitrile] | 0.21 to 10 |
| N#Cc1cncc(COc2cc(OCc3cccc(-c4cccc(OCCCNC[C@H](O)CO)c4Cl)c3Cl)c(Cl)cc2CNC[C@H](O)CO)c1 [Example 2033, 5-((4-chloro-5-((2,2′-dichloro-3′-(3-(((S)-2,3-dihydroxypropyl)amino)propoxy)-[1,1′-biphenyl]-3-yl)methoxy)-2-((((S)-2,3-dihydroxypropyl)amino)methyl)phenoxy)methyl)nicotinonitrile] | 0.21 to 10 |
| Cc1c(COc2cc(OCc3cncc(C(N)=O)c3)c(CN[C@](C)(CO)C(=O)O)cc2Cl)cccc1-c1cccc(OCCCN2CCC(CO)(C(=O)O)CC2)c1Cl [Example 1116, (R)-1-(3-((3′-((5-((5-carbamoylpyridin-3-yl)methoxy)-4-(((2-carboxy-1-hydroxypropan-2-yl)amino)methyl)-2-chlorophenoxy)methyl)-2-chloro-2′-methyl-[1,1′-biphenyl]-3-yl)oxy)propyl)-4-(hydroxymethyl)piperidine-4-carboxylic Acid] | 0.21 to 10 |
| CC(CO)(CO)NCc1cc(Cl)c(OCc2cccc(-c3cccc(OCCCN4CC[C@@H](O)C4)c3Cl)c2Cl)cc1OCc1cccc(C#N)c1 [Example 2059, (R)-3-((4-chloro-5-((2,2′-dichloro-3′-(3-(3-hydroxypyrrolidin-1-yl)propoxy)-[1,1′-biphenyl]-3-yl)methoxy)-2-(((1,3-dihydroxy-2-methylpropan-2-yl)amino)methyl)phenoxy)methyl)benzonitrile] | 0.21 to 10 |
| Cc1c(COc2cc(OCc3cncc(C#N)c3)c(CN[C@](C)(CO)C(=O)O)cc2Cl)cccc1-c1cccc(OCCCN2CCC(CO)(C(=O)O)C2)c1Cl (stereo partly drawn) [Example 1108, 1-(3-((3′-((4-((((R)-2-carboxy-1-hydroxypropan-2-yl)amino)methyl)-2-chloro-5-((5-cyanopyridin-3-yl)methoxy)phenoxy)methyl)-2-chloro-2′-methyl-[1,1′-biphenyl]-3-yl)oxy)propyl)-3-(hydroxymethyl)pyrrolidine-3-carboxylic Acid] | 0.21 to 10 |
| Cc1c(COc2cc(OCc3cncc(C#N)c3)c(CNC(C)(CO)CO)cc2Cl)cccc1-c1cccc(CN(C)CCN2CCS(=O)(=O)CC2)c1C [Example 4082, 5-((4-chloro-2-(((1,3-dihydroxy-2-methylpropan-2-yl)amino)methyl)-5-((3′-(((2-(1,1-dioxidothiomorpholino)ethyl)(methyl)amino)methyl)-2,2′-dimethyl-[1,1′-biphenyl]-3-yl)methoxy)phenoxy)methyl)nicotinonitrile] | 0.21 to 10 |
| Cc1c(COc2cc(OCc3cncc(C#N)c3)c(CN[C@@](C)(CO)C(=O)O)cc2Cl)cccc1-c1cccc(CN(C)CCN2CCS(=O)(=O)CC2)c1C [Example 4081, (S)-2-((5-chloro-2-((5-cyanopyridin-3-yl)methoxy)-4-((3′-(((2-(1,1-dioxidothiomorpholino)ethyl)(methyl)amino)methyl)-2,2′-dimethyl-[1,1′-biphenyl]-3-yl)methoxy)benzyl)amino)-3-hydroxy-2-methylpropanoic Acid] | 10 to 100 |
| Cc1c(COc2cc(OCc3cncc(C#N)c3)c(CO)cc2Cl)cccc1-c1cccc(OCCCN(C)C[C@H](O)CO)c1Cl [Example 2025, (S)-5-((4-chloro-5-((2′-chloro-3′-(3-((2,3-dihydroxypropyl)(methyl)amino)propoxy)-2-methyl-[1,1′-biphenyl]-3-yl)methoxy)-2-(hydroxymethyl)phenoxy)methyl)nicotinonitrile] | 0.21 to 10 |

Other lines, results leading:

| IC50 [nM] | Compound |
| --- | --- |
| 0.21 to 10 | Cc1c(COc2cc(OCc3cncc(C(N)=O)c3)c(CN3CCCC[C@H]3C(=O)O)cc2Cl)cccc1-c1cccc(OCCCN2CCC(CO)(C(=O)O)CC2)c1C [Example 1111, (S)-1-(2-((5-carbamoylpyridin-3-yl)methoxy)-4-((3′-(3-(4-carboxy-4-(hydroxymethyl)piperidin-1-yl)propoxy)-2,2′-dimethyl-[1,1′-biphenyl]-3-yl)methoxy)-5-chlorobenzyl)piperidine-2-carboxylic Acid] |
| 0.21 to 10 | Cc1c(COc2cc(OCc3cncc(C#N)c3)c(CN3CCCC[C@H]3C(=O)O)cc2Cl)cccc1-c1cccc(OCCCN2CCC(CO)CC2)c1C [Example 2214, (2S)-1-(5-chloro-2-((5-cyanopyridin-3-yl)methoxy)-4-((3′-(3-(4-(hydroxymethyl)piperidin-1-yl)propoxy)-2,2′-dimethylbiphenyl-3-yl)methoxy)benzyl)piperidine-2-carboxylic Acid] |
| 0.21 to 10 | CC(=O)NC1CCN(CCCOc2cccc(-c3cccc(COc4cc(OCc5cncc(C#N)c5)c(CN5CCCC[C@H]5C(=O)O)cc4Cl)c3Cl)c2Cl)C1 (stereo partly drawn) [Example 2047, (2S)-1-(4-((3′-(3-(3-acetamidopyrrolidin-1-yl)propoxy)-2,2′-dichloro-[1,1′-biphenyl]-3-yl)methoxy)-5-chloro-2-((5-cyanopyridin-3-yl)methoxy)benzyl)piperidine-2-carboxylic Acid] |
| 0.21 to 10 | Cc1c(COc2cc(OCc3cncc(C#N)c3)c(CN3CCCC[C@H]3C(=O)O)cc2Cl)cccc1-c1cccc(O[C@H](C)CCN2CC[C@@H](O)C2)c1C [Example 1526, (S)-1-(5-chloro-2-((5-cyanopyridin-3-yl)methoxy)-4-((3′-(((R)-4-((R)-3-hydroxypyrrolidin-1-yl)butan-2-yl)oxy)-2,2′-dimethyl-[1,1′-biphenyl]-3-yl)methoxy)benzyl)piperidine-2-carboxylic acid] |
| 0.21 to 10 | Cc1c(COc2cc(OCc3cncc(C#N)c3)c(CN3CCCC[C@H]3C(=O)O)cc2Cl)cccc1-c1cccc(OCCCN2CC[C@@H](O)C2)c1F [Example 1520, (S)-1-(5-chloro-2-((5-cyanopyridin-3-yl)methoxy)-4-((2′-fluoro-3′-(3-((R)-3-hydroxypyrrolidin-1-yl)propoxy)-2-methyl-[1,1′-biphenyl]-3-yl)methoxy)benzyl)piperidine-2-carboxylic acid] |
| 0.21 to 10 | Cc1c(COc2cc(OCc3cncc(C#N)c3)c(CN3CCCC[C@H]3C(=O)O)cc2Cl)cccc1-c1cccc(OCCCN2CCC(F)(F)C2)c1C [Example 4112, (S)-1-(5-chloro-2-((5-cyanopyridin-3-yl)methoxy)-4-((3′-(3-(3,3-difluoropyrrolidin-1-yl)propoxy)-2,2′-dimethyl-[1,1′-biphenyl]-3-yl)methoxy)benzyl)piperidine-2-carboxylic Acid] |
| 0.21 to 10 | Cc1c(COc2cc(OCc3cc(Cl)cc(Cl)c3)c(CN3CCCC[C@H]3C(=O)O)cc2Cl)cccc1-c1cccc(OCCCN2CC[C@@H](O)C2)c1C [Example 4503, (S)-1-(5-chloro-2-((3,5-dichlorobenzyl)oxy)-4-((3′-(3-((R)-3-hydroxypyrrolidin-1-yl)propoxy)-2,2′-dimethyl-[1,1′-biphenyl]-3-yl)methoxy)benzyl)piperidine-2-carboxylic Acid] |
| 100 to 2000 | Cc1c(COc2cc(OCc3cncc(C#N)c3)c(CN3CCCC[C@H]3C(=O)O)cc2Cl)cccc1-c1cccc(C(=O)N2CCOCC2)c1C [Example 4048, (S)-1-(5-chloro-2-((5-cyanopyridin-3-yl)methoxy)-4-((2,2′-dimethyl-3′-(morpholine-4-carbonyl)-[1,1′-biphenyl]-3-yl)methoxy)benzyl)piperidine-2-carboxylic Acid] |
